Results reported in patent US20100048549A1, “Peptidomimetics selective for the somatostatin receptor subtypes 1 and/or 4” (priority 2005, published 2010).
pKi: −log10 of the molar value. Counter-ions that a name gives are not always drawn.

These compounds were tested against T1, human somatostatin receptor subtype sst1 (Homo sapiens, UniProt P30872) (assay: Competition binding with 125I-LTT-SRIF-28, CHO cell membranes, sst1). Conditions: bound only; read-out: Ki values for the sst1.
T1 construct: expressed in transfected cells; host or cells: CHO cells (membranes)
T1 sequence (P30872 whole entry): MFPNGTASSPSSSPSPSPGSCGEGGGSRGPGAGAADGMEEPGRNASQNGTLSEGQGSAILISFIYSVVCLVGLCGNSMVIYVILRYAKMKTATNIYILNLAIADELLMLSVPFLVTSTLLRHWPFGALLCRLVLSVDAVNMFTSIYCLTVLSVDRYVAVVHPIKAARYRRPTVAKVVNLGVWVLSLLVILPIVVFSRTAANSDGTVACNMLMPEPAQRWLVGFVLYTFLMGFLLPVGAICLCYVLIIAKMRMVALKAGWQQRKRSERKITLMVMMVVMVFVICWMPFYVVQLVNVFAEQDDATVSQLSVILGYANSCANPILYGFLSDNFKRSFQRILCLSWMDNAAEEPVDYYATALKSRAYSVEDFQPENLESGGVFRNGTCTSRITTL
Protocol: (§1) The affinity of the compounds of the invention for the five human somatostatin receptor subtypes (sst1, sst2, sst3, sst4, and sst5) was determined in competition binding assays with (^125I-Tyr)-[Leu^8, DTrp^22]-Somatostatin-28 (^125I-LTT-SRIF-28). The biological material for these experiments consisted of membranes from Chinese hamster ovary (CHO) cells stably transfected with one of the five human somatostatin receptor subtypes. Membranes (3-20 μg of total protein per sample) and trace amount of ^125I-LTT-SRIF-28 were incubated in 10 mM Hepes, 1 mM EDTA, 5 mM MgCl2, 5 mg/ml of BSA and 30 μg/ml bacitracin, pH 7.6, with six concentrations of the compounds. Each concentration was run in duplicate. Nonspecific binding was defined by 1 μM somatostatin-14 (SRIF-14) and corresponded to 5-25% of total binding. After 60 min at room temperature, incubations were terminated by rapid vacuum filtration through GF/B glass fiber filter mats (presoaked at 4° C. in 200 ml of 10 mM Hepes, 1 mM EDTA, 5 mM MgCl2, pH 7.6) and three 5 ml washes with ice-cold wash buffer (20 mM TRIS, 1 mM EDTA, 5 mM MgCl2, pH 7.4). The filters were then dried, impregnated with scintillate and their radioactivity was measured by scintillation counting. The analysis of the experiments was carried out by nonlinear least square curve fitting. Affinity constants (Ki) were calculated from the IC50 values according to the Cheng-Prusoff's equation (Cheng and Prusoff, 1973). Experiments were repeated a minimum of three times.
`Cc1ccc(S(=O)(=O)N[C@@H](CCCNC(C)C)CNC2CCCc3ccccc32)c2ccccc12` (stereo partly drawn) [compound 17, (S)-4-methylnaphthalene-1-sulfonic acid {4-isopropylamino-1-[(1,2,3,4-tetrahydronaphthalen-1-ylamino)methyl]butyl}amide] was tested, and the pKi was > 6.52.
In the case of `Cc1ccc(S(=O)(=O)N[C@@H](CCCN)COc2ccccc2)c2ccccc12` [compound 13, (S)-4-methylnaphthalene-1-sulfonic acid (4-amino-1-phenoxymethylbutyl)amide], the pKi was > 6.52.
`Cc1ccc(S(=O)(=O)NC(COCc2ccccc2)CC2CCCN2)c2ccccc12` (stereo not shown) [compound 32, 4-methylnaphthalene-1-sulfonic acid (1-benzyloxymethyl-2-pyrrolidin-2-ylethyl)amide] was tested, and the pKi was > 6.52.
For `CCC(CC)NCCC[C@@H](COc1ccccc1)NS(=O)(=O)c1ccc(C)c2ccccc12` [compound 14, (S)-4-methylnaphthalene-1-sulfonic acid [4-(1-ethylpropylamino)-1-phenoxymethylbutyl]amide], the pKi was > 6.52.
`Cc1ccc(S(=O)(=O)N[C@@H](CCNC2=NCCN2)COCc2ccccc2)c2ccccc12` [compound 79, (S)-4-methylnaphthalene-1-sulfonic acid [1-benzyloxymethyl-3-(4,5-dihydro-1H-imidazol-2-ylamino)propyl]amide formic acid salt] was tested, and the pKi was > 6.52.
In the case of `Cc1ccc(S(=O)(=O)N[C@@H](C(=O)NCCNC(C)C)[C@H](C)OCc2ccccc2)c2ccccc12` [compound 71, (R)-4-methylnaphthalene-1-sulfonic acid [2-benzyloxy-2-(S)methyl-1-(2-isopropylaminoethylcarbamoyl)-ethyl]amide], the pKi was > 6.52.
`Cc1ccc(S(=O)(=O)N[C@@H](CCCNC(C)C)CSCc2ccccc2)c2ccccc12` [compound 61, (S)-4-methylnaphthalene-1-sulfonic acid (1-benzylsulfanylmethyl-4-isopropylaminobutyl)amide] was tested, and the pKi was > 6.52.
`Cc1ccc(S(=O)(=O)N[C@@H](CCCNC(C)C)COCc2ccccc2)c2ccccc12` [compound 62, (S)-4-methylnaphthalene-1-sulfonic acid (1-benzyloxymethyl-4-isopropylaminobutyl)amide] was tested, and the pKi was > 6.52.
`Cc1ccc(S(=O)(=O)N[C@@H](CNCCN(C)C)COCc2ccccc2)c2ccccc12` [compound 27, (S)-4-methylnaphthalene-1-sulfonic acid {2-benzyloxy-1-[(2-dimethylaminoethylamino)methyl]ethyl}amide] was tested, and the pKi was > 6.52.
With `Cc1ccc(S(=O)(=O)N[C@H](CCN)COCc2ccccc2)c2ccccc12` [compound 64, (R)-4-methylnaphthalene-1-sulfonic acid (3-amino-1-benzyloxymethylpropyl)amide] the pKi was > 6.52.
`Cc1ccc(S(=O)(=O)N[C@@H](CCCNC(C)C)COc2ccc3cnccc3c2)c2ccccc12` [compound 105, (S)-4-methylnaphthalene-1-sulfonic acid [4-isopropylamino-1-(isoquinolin-6-yloxymethyl)butyl]amide] was tested, and the pKi was > 6.52.

Each compound was assayed against T2, human somatostatin receptor subtype sst4 (Homo sapiens, UniProt P31391) (assay: Competition binding with 125I-LTT-SRIF-28, CHO cell membranes, sst4). Conditions: bound only; read-out: Ki values for the sst4.
T2 construct: expressed in transfected cells; host or cells: CHO cells (membranes)
T2 sequence (P31391 whole entry): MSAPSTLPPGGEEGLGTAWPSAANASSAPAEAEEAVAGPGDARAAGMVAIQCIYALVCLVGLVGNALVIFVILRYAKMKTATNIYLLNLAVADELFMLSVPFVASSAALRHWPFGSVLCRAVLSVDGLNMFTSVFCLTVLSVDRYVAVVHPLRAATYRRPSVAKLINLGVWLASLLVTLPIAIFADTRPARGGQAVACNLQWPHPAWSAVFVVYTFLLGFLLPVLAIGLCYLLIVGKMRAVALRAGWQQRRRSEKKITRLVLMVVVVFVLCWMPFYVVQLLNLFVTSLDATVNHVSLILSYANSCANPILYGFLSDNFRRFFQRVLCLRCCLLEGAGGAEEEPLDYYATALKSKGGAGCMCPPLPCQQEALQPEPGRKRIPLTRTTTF
Protocol: as §1
In the case of `Cc1ccc(S(=O)(=O)NC(CNCc2ccccc2)C2CCNCC2)c2ccccc12` (stereo not shown) [compound 34, 4-methylnaphthalene-1-sulfonic acid (2-benzylamino-1-piperidin-4-ylethyl)amide], the pKi was > 6.52.
`Cc1ccc(S(=O)(=O)N[C@@H](C(=O)NCCN)[C@H](C)OCc2ccccc2)c2ccccc12` [compound 70, (R)-4-methylnaphthalene-1-sulfonic acid [2-benzyloxy-2-(S)methyl-1-(aminoethylcarbamoyl)-ethyl]amide] was tested, and the pKi was > 6.52.
`Cc1ccc(S(=O)(=O)N[C@@H](CCCN)COc2ccccc2)c2ccccc12` [compound 13, (S)-4-methylnaphthalene-1-sulfonic acid (4-amino-1-phenoxymethylbutyl)amide] was tested, and the pKi was > 6.52.
`Cc1ccc(S(=O)(=O)N[C@@H](CCCN)CN(C)Cc2ccccc2)c2ccccc12` [compound 85, (S)-4-methylnaphthalene-1-sulfonic acid {4-amino-1-[(benzylmethylamino)methyl]butyl}amide] was tested, and the pKi was > 6.52.
For `Cc1ccc(S(=O)(=O)NC(COCc2ccccc2)CC2CCCN2)c2ccccc12` (stereo not shown) [compound 32, 4-methylnaphthalene-1-sulfonic acid (1-benzyloxymethyl-2-pyrrolidin-2-ylethyl)amide], the pKi was > 6.52.
With `Cc1ccc(S(=O)(=O)N[C@@H](CCCN)COc2ccsc2)c2ccccc12` [compound 87, (S)-4-methylnaphthalene-1-sulfonic acid [4-amino-1-(thiophen-3-yloxymethyl)-butyl]-amide] the pKi was > 6.52.
With `Cc1ccc(S(=O)(=O)N[C@@H](CCCN)COCc2c(F)c(F)c(F)c(F)c2F)c2ccccc12` [compound 102, (S)-4-methylnaphthalene-1-sulfonic acid (4-amino-1-pentafluorophenylmethoxymethylbutyl)amide] the pKi was > 6.52.
For `Cc1ccc(S(=O)(=O)N[C@@H](CCCN)COCc2ccc(F)cc2)c2ccccc12` [compound 101, (S)-4-methylnaphthalene-1-sulfonic acid [4-amino-1-(4-fluorobenzyloxymethyl)butyl]amide], the pKi was > 6.52.
In the case of `Cc1ccc(S(=O)(=O)N[C@@H](CCNC2=NCCN2)COCc2ccccc2)c2ccccc12` [compound 79, (S)-4-methylnaphthalene-1-sulfonic acid [1-benzyloxymethyl-3-(4,5-dihydro-1H-imidazol-2-ylamino)propyl]amide formic acid salt], the pKi was > 6.52.
`Cc1ccc(S(=O)(=O)N[C@H](COc2ccccc2)Cc2c[nH]cn2)c2ccccc12` [compound 84, (S)-4-methylnaphthalene-1-sulfonic acid [2-(1H-imidazol-4-yl)-1-phenoxymethylethyl]amide] was tested, and the pKi was > 6.52.
`Cc1ccc(COC[C@H](CCCN)NS(=O)(=O)c2ccc(C)c3ccccc23)cc1` [compound 12, (S)-4-methylnaphthalene-1-sulfonic acid [4-amino-1-(4-methylbenzyloxymethyl)butyl]amide] was tested, and the pKi was > 6.52.
In the case of `Cc1ccc(S(=O)(=O)N[C@@H](CCCN)COCC(C)C)c2ccccc12` [compound 80, (S)-4-methylnaphthalene-1-sulfonic acid (4-amino-1-isobutoxymethylbutyl)amide], the pKi was > 6.52.
In the case of `Cc1ccc(S(=O)(=O)N[C@@H](CCCNC(C)C)COCc2ccccc2)c2ccccc12` [compound 62, (S)-4-methylnaphthalene-1-sulfonic acid (1-benzyloxymethyl-4-isopropylaminobutyl)amide], the pKi was > 6.52.
In the case of `Cc1ccc(S(=O)(=O)N[C@@H](CNCCN(C)C)COCc2ccccc2)c2ccccc12` [compound 27, (S)-4-methylnaphthalene-1-sulfonic acid {2-benzyloxy-1-[(2-dimethylaminoethylamino)methyl]ethyl}amide], the pKi was > 6.52.
For `Cc1ccc(S(=O)(=O)N[C@@H](CCCN)CSc2ccccc2)c2ccccc12` [compound 67, (S)-4-methylnaphthalene-1-sulfonic acid (4-amino-1-phenylsulfanylmethylbutyl)amide], the pKi was > 6.52.
`Cc1ccc(S(=O)(=O)N[C@@H](CCCN)CNCc2ccccc2)c2ccccc12` [compound 35, (S)-4-methylnaphthalene-1-sulfonic acid [4-amino-1-(benzylaminomethyl)butyl]amide] was tested, and the pKi was > 6.52.
For `Cc1ccc(S(=O)(=O)N[C@@H](CCN)COc2ccccc2)c2ccccc12` [compound 100, (S)-4-Methylnaphthalene-1-sulfonic acid (3-amino-1-phenoxymethylpropyl)amide], the pKi was > 6.52.
`Cc1ccc(S(=O)(=O)NC(CCCN)CNC2CCCCC2)c2ccccc12` (stereo not shown) [compound 77, 4-methylnaphthalene-1-sulfonic acid (4-amino-1-cyclohexylaminomethyl-butyl)-amide formic acid salt] was tested, and the pKi was > 6.52.
For `Cc1ccc(S(=O)(=O)N[C@@H](CCN)COCc2ccccc2)c2ccccc12` [compound 3, (S)-4-methylnaphthalene-1-sulfonic acid (3-amino-1-benzyl-oxymethylpropyl)amide], the pKi was > 6.52.
`Cc1ccc(S(=O)(=O)N[C@H](COCc2ccccc2)C(=O)NCCN)c2ccccc12` [compound 24, (R)-4-methylnaphthalene-1-sulfonic acid [1-(2-aminoethylcarbamoyl)-2-benzyloxyethyl]amide] was tested, and the pKi was > 6.52.
`Cc1ccc(S(=O)(=O)N[C@H](CCN)COCc2ccccc2)c2ccccc12` [compound 64, (R)-4-methylnaphthalene-1-sulfonic acid (3-amino-1-benzyloxymethylpropyl)amide] was tested, and the pKi was > 6.52.
`Cc1ccc(S(=O)(=O)N[C@@H](CCCN)COC(C)c2ccccc2)c2ccccc12` (stereo partly drawn) [compound 88, (S)-4-methyl-naphthalene-1-sulfonic acid [4-amino-1-(1-phenyl-ethoxy methyl)-butyl]-amide formic acid salt] was tested, and the pKi was > 6.52.
`NCCC[C@@H](COCc1ccccc1)NS(=O)(=O)c1cccc2ccccc12` [compound 83, (S)-naphthalene-1-sulfonic acid (4-amino-1-benzyloxymethylbutyl)amide] was tested, and the pKi was > 6.52.
In the case of `CCOC[C@H](CCCN)NS(=O)(=O)c1ccc(C)c2ccccc12` [compound 76, (S)-4-methylnaphthalene-1-sulfonic acid (4-amino-1-ethoxymethylbutyl)amide], the pKi was > 6.52.
In the case of `Cc1ccc(S(=O)(=O)N[C@@H](CCCN)CSCc2ccccc2)c2ccccc12` [compound 1, (S)-4-methylnaphthalene-1-sulfonic acid (4-amino-1-benzylsulfanylmethylbutyl)amide], the pKi was > 6.52.
With `Cc1ccc(S(=O)(=O)N[C@H](CNCc2ccccc2)Cc2c[nH]cn2)c2ccccc12` [compound 93, (S)-4-methylnaphthalene-1-sulfonic acid [1-(benzylaminomethyl)-2-(1H-imidazol-4-yl)ethyl]amide] the pKi was > 6.52.
`NCCC[C@@H](COCc1ccccc1)NS(=O)(=O)c1ccc(F)c2ccccc12` [compound 78, (S)-4-fluoronaphthalene-1-sulfonic acid (4-amino-1-benzyloxymethylbutyl)amide] was tested, and the pKi was > 6.52.
In the case of `Cc1ccc(S(=O)(=O)N[C@H](CNc2ccccc2)Cc2c[nH]cn2)c2ccccc12` [compound 94, (S)-4-methylnaphthalene-1-sulfonic acid [2-(1H-imidazol-4-yl)-1-phenylaminomethylethyl]amide], the pKi was > 6.52.
`Cc1ccc(S(=O)(=O)N[C@H](CSCc2ccccc2)C(=O)NCCN)c2ccccc12` [compound 31, (S)-4-methylnaphthalene-1-sulfonic acid [1-(2-aminoethylcarbamoyl)-2-benzylsulfanylethyl]amide] was tested, and the pKi was > 6.52.
